US8153397B2 (priority 1993, dated 2012)

Molecular target: rBoNT/A LC (Clostridium botulinum, UniProt P0DPI0)
Type: biochemical

rBoNT/A LC, sequence (P0DPI0 3-448, added parts left off): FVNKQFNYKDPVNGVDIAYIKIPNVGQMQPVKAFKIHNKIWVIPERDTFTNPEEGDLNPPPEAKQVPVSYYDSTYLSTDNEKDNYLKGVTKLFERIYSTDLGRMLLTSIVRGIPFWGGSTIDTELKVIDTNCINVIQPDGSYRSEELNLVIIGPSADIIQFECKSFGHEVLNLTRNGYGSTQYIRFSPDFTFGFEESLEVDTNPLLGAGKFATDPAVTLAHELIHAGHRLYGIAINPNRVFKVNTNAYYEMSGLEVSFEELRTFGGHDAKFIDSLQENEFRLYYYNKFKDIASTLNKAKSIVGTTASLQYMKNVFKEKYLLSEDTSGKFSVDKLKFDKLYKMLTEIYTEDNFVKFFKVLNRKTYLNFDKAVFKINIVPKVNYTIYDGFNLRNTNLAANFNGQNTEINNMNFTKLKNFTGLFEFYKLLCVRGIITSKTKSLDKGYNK

Compound | % Activity [%] | effect on activity of the rBoNT/A LC | stimulation of activity
[Cl][Hg][Cl] [Mercuric chloride] | 00 | completely abolished | 
OCCS [β-Mercaptoethanol] | 120 | stimulated the activity | 
NC(=O)CI [Iodoacetamide] | 80 |  | 
O=C(O)CN(CCN(CC(=O)O)CC(=O)O)CC(=O)O [EDTA] | 00 | completely inhibited | 
O[C@H](CS)[C@H](O)CS [Dithiothreitol] | 45 | significantly inhibited | 
[Cl-].[Cl-].[Mg+2] [MgCl2] | 90 |  | 
CoCl2 | 90 |  | 
O=S(=O)([O-])[O-].[Ni+2] [NiSO4] | 55 | inhibited the LC reaction to various extents | 
[Ca+2].[Cl-].[Cl-] [CaCl2] | 75 |  | 
O=C(O)c1cc[c]([Hg][Cl])cc1 [p-C1-Mercuribenzoate] | 00 | completely abolished | 
O[C@H](CS)[C@@H](O)CS [Dithioerythreitol] | 60 | inhibited the activity to various extents | 
N[C@@H](CCC(=O)N[C@@H](CSN=O)C(=O)NCC(=O)O)C(=O)O [S-Nitrosoglutathione] | 55 |  | 
N[C@@H](CCC(=O)N[C@@H](CS)C(=O)NCC(=O)O)C(=O)O [Glutathione, reduced] | 75 | inhibited the activity to various extents | 
O=S(=O)([O-])[O-].[Cu+2] [CuSO4] | 95 |  | 
N[C@@H](CS)C(=O)O [L-Cysteine] | 20 | inhibited the activity to various extents | 
[Cl][Mn][Cl] [MnCl2] | 40 | inhibited the LC reaction to various extents | 
[Cl-].[Cl-].[Zn+2] [ZnCl2] |  |  | 5%-10%
[Cl][Fe][Cl] [FeCl2] | 35 |  | 
